Test results from PMC6696278 (International Journal of Molecular Sciences, 2019).

Assays:
Assay type in all cases: binding
human galectin-1 = molecular target: T1, human galectin-1 (Homo sapiens, UniProt P09382); experiment: competitive fluorescence polarization assay, galectin-1; conditions: for Kd: average and SEM of 4–8 single-triple point measurements, PBS; for fold better affinity for galectin-1 than reference methyl β-D-galactopyranoside 32: ratio of Kd values
T1 construct: made in house
From the text: (§1) Human galectin-1 [25], galectin-2 [26], galectin-3 [27], galectin-4N [19], galectin-4C [19], galectin-8N [28], galectin-8C [28], galectin-9N [29], and galectin-9C [30], were expressed and purified as described earlier. Human galectin-7 was expressed using a pET3c plasmid in E. coli BL21-star. The plasmid containing expression optimized DNA encoding the full human galectin-7 sequence (NCBI Reference Sequence: NP_002298.1) was obtained from GenScript (Piscataway, NJ, USA). […] Lactose was removed by chromatography on a PD-10 column (Amersham Biosciences) with repeated ultrafiltration with Centriprep (Amicon).
(§2) Fluorescence polarization experiments were carried out either with a POLARStar plate reader and FLUOstar Galaxy software or with a PheraStarFS plate reader and PHERAstar Mars version 2.10 R3 software (BMG, Offenburg, Germany). The dissociation constant (Kd) values were determined in PBS as described earlier. Specific conditions for galectin-1, 2, 3, 4N, 4C, 8N, 8C, 9N, and 9C were kept as reported. Experiments were performed at room temperature with human galectin-7 at 5 µM and the fluorescent probe β-D-galactopyranosyl-(1–4)-2-acetamido-2-deoxy-β-d-glucopyranosyl-(1–3)-β-d-galactopyranosyl-(1–4)-(N1-fluorescein-5-yl-carbonylaminomethylcarbonyl)-β-D-glucopyranosylamine at 0.02 µM. All the compounds in Table 1 except 32 were dissolved in a neat DMSO at 100 mM and diluted in PBS to three to six different concentrations to be tested in duplicate.

human galectin-2 = molecular target: T2, human galectin-2 (Homo sapiens, UniProt P05162); experiment: competitive fluorescence polarization assay, galectin-2; conditions: average and SEM, PBS
T2 construct: made in house
T2 sequence (P05162 1-132): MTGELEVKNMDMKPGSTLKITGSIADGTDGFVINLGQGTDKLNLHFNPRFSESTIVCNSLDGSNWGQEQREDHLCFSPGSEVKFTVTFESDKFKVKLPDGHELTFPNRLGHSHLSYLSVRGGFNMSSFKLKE
From the text: (§3) Human galectin-1 [25], galectin-2 [26], galectin-3 [27], galectin-4N [19], galectin-4C [19], galectin-8N [28], galectin-8C [28], galectin-9N [29], and galectin-9C [30], were expressed and purified as described earlier. Human galectin-7 was expressed using a pET3c plasmid in E. coli BL21-star. The plasmid containing expression optimized DNA encoding the full human galectin-7 sequence (NCBI Reference Sequence: NP_002298.1) was obtained from GenScript (Piscataway, NJ, USA). Bacterial culture and induction, and galectin purification was essential as described for galectin-3 expressed with the same vector [27]; a typical yield was 1.5–2 mg/L culture. Lactose was removed by chromatography on a PD-10 column (Amersham Biosciences) with repeated ultrafiltration with Centriprep (Amicon).
as §2

human galectin-3 = molecular target: T3, human galectin-3 (Homo sapiens, UniProt P17931); experiment: competitive fluorescence polarization assay, galectin-3; conditions: average and SEM, PBS
T3 construct: made in house; host or cells: vector pET3c (the same vector as galectin-7)
From the text: as §1, §2

[1] = molecular target: T4, human galectin-4N (N-terminal domain) (Homo sapiens, UniProt P56470); experiment: competitive fluorescence polarization assay, galectin-4N; conditions: for Kd: N-terminal domain, average and SEM, PBS
T4 construct: 4N (N-terminal domain) 4C (C-terminal domain); made in house
T4 sequence (P56470 19-150 limits assumed): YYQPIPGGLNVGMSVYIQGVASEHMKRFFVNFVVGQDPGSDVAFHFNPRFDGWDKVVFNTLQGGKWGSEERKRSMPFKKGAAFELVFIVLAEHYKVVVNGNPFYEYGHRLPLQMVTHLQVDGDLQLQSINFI
From the text: as §3, §2

[2] = molecular target: T5, human galectin-4C (C-terminal domain) (Homo sapiens, UniProt P56470); experiment: competitive fluorescence polarization assay, galectin-4C; conditions: PBS
T5 construct: 4N (N-terminal domain) 4C (C-terminal domain); made in house
T5 sequence (P56470 194-323 limits assumed): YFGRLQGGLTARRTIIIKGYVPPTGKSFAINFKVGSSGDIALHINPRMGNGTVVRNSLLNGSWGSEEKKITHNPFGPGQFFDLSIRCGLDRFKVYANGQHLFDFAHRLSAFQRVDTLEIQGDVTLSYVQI
From the text: as §1, §2

human galectin-7 = molecular target: T6, human galectin-7 (Homo sapiens, UniProt P47929); experiment: competitive fluorescence polarization assay, galectin-7; conditions: average and SEM, PBS, room temperature, galectin-7 at 5 µM, probe 0.02 µM
T6 construct: made in house; host or cells: E. coli BL21-star, pET3c plasmid (DNA from GenScript)
From the text: as §3, §2

[3] = molecular target: T7, human galectin-8N (N-terminal domain) (Homo sapiens, UniProt O00214); experiment: competitive fluorescence polarization assay, galectin-8N; conditions: PBS
T7 construct: 4N (N-terminal domain) 4C (C-terminal domain), 7, 8N, 8C, 9N, and 9C; made in house
T7 sequence (O00214 19-152 limits assumed): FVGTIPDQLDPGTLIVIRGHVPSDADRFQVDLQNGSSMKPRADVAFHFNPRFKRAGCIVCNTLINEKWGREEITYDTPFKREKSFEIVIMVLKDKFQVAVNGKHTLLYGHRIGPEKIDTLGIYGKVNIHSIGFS
From the text: as §1, §2

[4] = molecular target: T8, human galectin-8C (C-terminal domain) (Homo sapiens, UniProt O00214); experiment: competitive fluorescence polarization assay, galectin-8C; conditions: PBS
T8 construct: 4N (N-terminal domain) 4C (C-terminal domain), 7, 8N, 8C, 9N, and 9C; made in house
T8 sequence (O00214 187-317 limits assumed): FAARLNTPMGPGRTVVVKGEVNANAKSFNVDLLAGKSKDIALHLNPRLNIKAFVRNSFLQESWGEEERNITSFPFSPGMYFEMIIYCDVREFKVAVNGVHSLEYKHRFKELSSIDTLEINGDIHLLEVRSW
From the text: as §1, §2

[5] = molecular target: T9, human galectin-9C (C-terminal domain) (Homo sapiens, UniProt O00182); experiment: competitive fluorescence polarization assay, galectin-9C; conditions: PBS
T9 construct: 4N (N-terminal domain) 4C (C-terminal domain), 7, 8N, 8C, 9N, and 9C; made in house
From the text: as §1, §2

[6] = molecular target: T10, human galectin-9N (N-terminal domain) (Homo sapiens, UniProt O00182); experiment: competitive fluorescence polarization assay, galectin-9N; conditions: PBS
T10 construct: 4N (N-terminal domain) 4C (C-terminal domain), 7, 8N, 8C, 9N, and 9C; made in house
From the text: as §3, §2

T3 sequence (P17931 whole entry): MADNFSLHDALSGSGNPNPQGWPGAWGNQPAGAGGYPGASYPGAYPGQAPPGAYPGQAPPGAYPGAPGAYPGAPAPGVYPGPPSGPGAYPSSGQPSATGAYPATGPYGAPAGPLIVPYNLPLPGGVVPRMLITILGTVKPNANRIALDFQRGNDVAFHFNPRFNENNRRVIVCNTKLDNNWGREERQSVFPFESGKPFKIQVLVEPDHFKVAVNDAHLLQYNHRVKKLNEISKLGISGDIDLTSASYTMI
T10 sequence (O00182 17-148 limits assumed): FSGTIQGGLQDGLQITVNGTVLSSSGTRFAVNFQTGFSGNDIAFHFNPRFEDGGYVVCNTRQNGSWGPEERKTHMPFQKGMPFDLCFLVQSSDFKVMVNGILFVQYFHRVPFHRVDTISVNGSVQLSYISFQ
T6 sequence (P47929 whole entry): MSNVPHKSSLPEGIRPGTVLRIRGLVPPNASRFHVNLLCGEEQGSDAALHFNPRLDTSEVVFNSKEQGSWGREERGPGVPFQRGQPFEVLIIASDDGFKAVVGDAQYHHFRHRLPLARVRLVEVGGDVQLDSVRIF
T1 sequence (P09382 whole entry): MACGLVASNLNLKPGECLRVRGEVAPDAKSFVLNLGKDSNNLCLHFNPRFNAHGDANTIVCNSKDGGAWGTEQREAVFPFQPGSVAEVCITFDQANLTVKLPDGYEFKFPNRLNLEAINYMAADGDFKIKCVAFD
T9 sequence (O00182 227-355 limits assumed): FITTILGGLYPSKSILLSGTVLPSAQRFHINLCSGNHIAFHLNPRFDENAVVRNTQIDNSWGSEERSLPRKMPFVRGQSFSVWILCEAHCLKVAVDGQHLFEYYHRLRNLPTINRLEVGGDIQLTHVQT

Row | SMILES | Kd (human galectin-1; Table 1) [mM] | Kd (human galectin-3; Table 1) [mM] | Kd ([1]; Table 1) [mM] | Kd ([2]; Table 1, average and SEM) [mM] | Kd (human galectin-7; Table 1) [mM] | Kd ([3]; Table 1, average and SEM) [mM] | Kd ([4]; Table 1, average and SEM) [mM] | Kd ([5]; Table 1, average and SEM) [mM] | Kd (human galectin-2; Table 2) [mM] | Kd ([6]; Table 2, average and SEM) [mM] | Kd ([5]; Table 2, average and SEM) [mM] | other results
1 | CO[C@@H]1O[C@H](CO)[C@H](O)[C@@H](CNC(=O)c2ccccc2)[C@H]1O [Compound 7a, Methyl 3-Deoxy-3-C-Benzamidomethyl-β-D-Gulopyranoside] | 1.8 ± 0.15 | > 4 | > 4 | > 4 | > 4 | > 4 | > 4 | > 4 | – | – | – | Kd (human galectin-2; Table 1): > 4 mM
2 | COC[C@H]1[C@@H](O)[C@@H](CO)O[C@@H](OC)[C@@H]1O [Compound 3, Methyl 3-Deoxy-3-C-Methoxymethyl-β-D-Galactopyranoside] | > 4 | > 4 | – | – | – | > 4 | > 4 | – | – | – | – | –
3 | CO[C@@H]1O[C@H](CO)[C@H](O)[C@H](CO)[C@H]1O [Compound 1b, Methyl 3-Deoxy-3-C-Hydroxymethyl-β-D-Galactopyranoside] | > 4 | > 4 | > 4 | > 4 | > 4 | > 4 | > 4 | > 4 | – | – | – | Kd (human galectin-2; Table 1): > 4 mM; binding to galectin-4N (in words) [1]: weak binding; Kd ([6]; Table 1, average and SEM): > 4 mM
4 | CO[C@@H]1O[C@H](CO)[C@H](O)[C@H](CNC(=O)c2c(F)c(F)c(F)c(F)c2F)[C@H]1O [Compound 7g, Methyl 3-Deoxy-3-C-(2,3,4,5,6-Pentafluorobenzamidomethyl)-β-D-Galactopyranoside] | – | – | – | – | – | – | – | – | > 4 | > 4 | > 4 | Kd (human galectin-1; Table 2): 0.7 ± 0.005 mM; fold better affinity for galectin-1 than reference methyl β-D-galactopyranoside 32 (human galectin-1): 14 fold; Kd (human galectin-3; Table 2): > 4 mM; Kd ([1]; Table 2): > 4 mM; Kd ([2]; Table 2, average and SEM): > 4 mM; Kd (human galectin-7; Table 2): > 4 mM; Kd ([3]; Table 2, average and SEM): > 4 mM; Kd ([4]; Table 2, average and SEM): > 4 mM
5 | CO[C@@H]1O[C@H](CO)[C@H](O)[C@H](CNC(=O)Nc2cccc(F)c2)[C@H]1O [Compound 5, Methyl 3-Deoxy-3-C-(3-Fluorophenylureido)Methyl-β-D-Galactopyranoside] | > 4 | > 4 | > 4 | > 4 | > 4 | > 4 | > 4 | > 4 | – | – | – | Kd (human galectin-2; Table 1): > 4 mM; Kd ([6]; Table 1, average and SEM): > 4 mM
6 | CO[C@@H]1O[C@H](CO)[C@H](O)[C@H](CNC(=O)c2cccc(F)c2)[C@H]1O [Compound 7d, Methyl 3-Deoxy-3-C-(3-Fluorobenzamidomethyl)-β-D-Galactopyranoside] | – | – | – | – | – | – | – | – | > 4 | > 4 | > 4 | Kd (human galectin-1; Table 2): 1.9 ± 0.4 mM; Kd (human galectin-3; Table 2): > 4 mM; Kd ([1]; Table 2): > 4 mM; Kd ([2]; Table 2, average and SEM): > 4 mM; Kd (human galectin-7; Table 2): > 4 mM; Kd ([3]; Table 2, average and SEM): > 4 mM; Kd ([4]; Table 2, average and SEM): > 4 mM
7 | CO[C@@H]1O[C@H](CO)[C@H](O)[C@@H](NC(=O)c2ccccc2)[C@H]1O [Compound 10, Methyl 3-Benzamido-3-Deoxy-β-D-Gulopyranoside] | – | – | – | – | – | – | – | – | > 4 | > 4 | > 4 | Kd (human galectin-1; Table 2): > 4 mM; binding to galectin-1 (in words) (human galectin-1; under the assay conditions): no binding; Kd (human galectin-3; Table 2): > 4 mM; binding to galectin-4N (in words) [1]: improved binding; Kd ([1]; Table 2): 1.3 ± 0.2 mM; Kd ([2]; Table 2, average and SEM): > 4 mM; Kd ([3]; Table 2, average and SEM): > 4 mM; Kd ([4]; Table 2, average and SEM): > 4 mM
8 | CO[C@@H]1O[C@H](CO)[C@H](O)[C@@H](CO)[C@H]1O [Compound 1a, Methyl 3-Deoxy-3-C-Hydroxymethyl-β-D-Gulopyranoside] | 1.3 ± 0.15 | > 4 | > 4 | – | > 4 | > 4 | 3.7 ± 0.02 | > 4 | – | – | – | fold better affinity for galectin-1 than reference methyl β-D-galactopyranoside 32 (human galectin-1): 7 fold; Kd ([6]; Table 1, average and SEM): > 4 mM
9 | CO[C@@H]1O[C@H](CO)[C@H](O)[C@@H](CNS(=O)(=O)c2ccccc2)[C@H]1O [Compound 6, Methyl 3-Deoxy-3-C-(Phenylsufonamido)Methyl-β-D-Galactopyranoside] | > 10 | > 4 | > 4 | > 4 | > 4 | > 4 | > 4 | > 4 | – | – | – | –
10 | CO[C@@H]1O[C@H](CO)[C@H](O)[C@@H](CNP(=O)(Oc2ccccc2)Oc2ccccc2)[C@H]1O [Compound 8, Methyl 3-Deoxy-3-C-(Diphenylphosphonamidomethyl)-β-D-Galactopyranoside] | > 10 | > 4 | > 4 | > 4 | > 4 | > 4 | > 4 | > 5 | – | – | – | –
11 | CO[C@@H]1O[C@H](CO)[C@H](O)[C@@H](O)[C@H]1O [Compound 9, Methyl β-D-Gulopyranoside] | – | – | – | – | – | – | – | – | 10 ± 1.5 | > 4 | > 4 | Kd (human galectin-7; Table 2): > 4 mM
